Test [1] addresses T1, Phosphotyrosine protein phosphatase (Mycobacterium tuberculosis, UniProt A0A045ISB3).
T1 sequence (A0A045ISB3 whole entry): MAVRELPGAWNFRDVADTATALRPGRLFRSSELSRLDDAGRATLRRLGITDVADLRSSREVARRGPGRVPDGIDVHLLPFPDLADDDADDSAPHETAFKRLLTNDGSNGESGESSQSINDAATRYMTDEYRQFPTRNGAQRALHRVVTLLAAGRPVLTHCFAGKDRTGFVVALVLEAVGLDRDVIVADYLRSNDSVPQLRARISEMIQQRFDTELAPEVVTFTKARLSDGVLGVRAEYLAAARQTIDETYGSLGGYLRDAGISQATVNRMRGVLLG
The test is described as follows: Inhibition of Mycobacterium tuberculosis H37Rv ptpB expressed in Escherichia coli BL21 (DH3) cells using 6,8-difluoromethylumbelliferyl phosphate as substrate incubated for 30 mins by fluorescence based assay.

For another test, the system named is Candida albicans. Description: Antifungal activity against Candida albicans. Type of test: functional, organism-based.
For test [2], the target named is T1, Phosphotyrosine protein phosphatase. Description: Non-competitive inhibition of Mycobacterium tuberculosis H37Rv ptpB expressed in Escherichia coli BL21 (DH3) cells using p-nitrophenyl phosphate as substrate incubated for 30 mins by Lineweaver-Burk blot analysis.

SMILES strings stand for the structures. The source made the active and inactive calls. The rule behind the calls is not given here. Bounds are passed on as bounds.

The term IC50 denotes the concentration needed to halve the response being measured. The Ki is a dissociation constant, usually derived from enzyme kinetics or from competition with a known ligand. A higher Ki goes with lower affinity. As for `CC[C@H](COC(C)=O)C[C@H](C)C[C@H](C)C[C@@H](C)/C=C(C)/C=C(/C=C/C=C/C(=O)O)C(=O)O`, the IC50 in test [1] (read-out: IC50) was determined as 4 µM. Besides, the result with Candida albicans was inactive. In test [2], this compound had an inhibition constant Ki of 5.2 µM.
`CC[C@H](C)C[C@H](C)C[C@H](CO)C[C@@H](C)/C=C(C)/C=C(C)\C=C\C=C\C(=O)N1CCCC(O)C1=O` (some centres not stated): in test [1] (read-out: IC50), the IC50 is greater than 50 µM. Also, the result in the test on Candida albicans was inactive.
In test [1], `CC1(C)CC[C@]2(C(=O)O)CC[C@]3(C)C(=CC[C@@H]4[C@@]5(C)CC[C@H](O)C(C)(C)[C@@H]5CC[C@]43C)[C@@H]2C1` [OLEANOLIC_ACID] came in with an IC50 of 14 µM.
On to `C/C(=C\[C@H](C)C[C@@H](C)C[C@@H](C)C[C@@H](C)[C@@H](C)O)C(=O)NCCC(=O)O`, for which the 50% inhibitory concentration (IC50) in test [1] (read-out: IC50) was greater than 50 µM. Further, the result in the test on Candida albicans was inactive.
For `CC[C@H](C)C[C@H](C)C[C@@H]1CO[C@@H](/C(C)=C/C(=C\C=C\CC(=O)O)C(=O)O)[C@H](C)C1`, the IC50 in test [1] (read-out: IC50) was determined as 5.1 µM. In the test with Candida albicans, the outcome was inactive. Further, the Ki in test [2] stood at 8.9 µM.
In the same order, the values of `CC[C@H](C)C[C@H](C)C[C@H](CO)C[C@@H](C)/C=C(C)/C=C(C)/C=C/C=C/C(=O)N1CCCC(O)C1=O` (some centres not stated) are 11 µM, “inactive” and 16 µM.
In the case of `CC[C@H](C)C[C@H](C)C[C@@H]1CO[C@@H](\C(C)=C/C(=C/C=C/CC(=O)O)C(=O)O)[C@H](C)C1`, the IC50 in test [1] (read-out: IC50) was determined as 12 µM. Moreover, the outcome with Candida albicans was inactive. The same compound yielded a Ki in test [2] of 7 µM.
